Columns and labels:
BJ [1] = assay: hTERT-SEAP (Human telomerase reverse transcriptase-SEAP) activity in immortalized hTERT-BJI at 26 uM concentration and level of cell viability determined in MTT assay; format: functional
BJ [2] = assay: hTERT-SEAP (Human telomerase reverse transcriptase-SEAP) activity in immortalized hTERT-BJI at 260.0 uM concentration and level of cell viability determined in MTT assay; format: functional
BJ [3] = assay: Compound was tested for human telomerase reverse transcriptase-SEAP (hTERT-SEAP) activity in immortalized hTERT-BJI at 26 uM concentration; format: functional
BJ [4] = assay: Compound was tested for human telomerase reverse transcriptase-SEAP (hTERT-SEAP) activity in immortalized hTERT-BJI at 260.0 uM concentration; format: functional
NCI-H1299 [5] = assay: hTERT-SEAP (Human telomerase reverse transcriptase-SEAP) activity in non-small cell lung cancer H1299 cell at 2.6 uM concentration and level of cell viability determined in MTT assay; format: functional
NCI-H1299 [6] = assay: Compound was tested for human telomerase reverse transcriptase-SEAP (hTERT-SEAP) activity in non-small cell lung cancer H1299 cell at 26 uM concentration; format: functional
NCI-H1299 [7] = assay: Compound was tested for human telomerase reverse transcriptase-SEAP (hTERT-SEAP) activity in non-small cell lung cancer H1299 cell at 260.0 uM concentration; format: functional
NCI-H1299 [8] = assay: hTERT-SEAP (Human telomerase reverse transcriptase-SEAP) activity in non-small cell lung cancer H1299 cell at 26 uM concentration and level of cell viability determined in MTT assay; format: functional
NCI-H1299 [9] = assay: hTERT-SEAP (Human telomerase reverse transcriptase-SEAP) activity in non-small cell lung cancer H1299 cell at 260.0 uM concentration and level of cell viability determined in MTT assay; format: functional
NCI-H1299 [10] = assay: Compound was tested for human telomerase reverse transcriptase-SEAP (hTERT-SEAP) activity in non-small cell lung cancer H1299 cell at 2.6 uM concentration; format: functional
BJ [11] = assay: hTERT-SEAP (Human telomerase reverse transcriptase-SEAP) activity in immortalized hTERT-BJI at 2.8 uM concentration and level of cell viability determined in MTT assay; format: functional
BJ [12] = assay: hTERT-SEAP (Human telomerase reverse transcriptase-SEAP) activity in immortalized hTERT-BJI at 28.0 uM concentration and level of cell viability determined in MTT assay; format: functional
BJ [13] = assay: hTERT-SEAP (Human telomerase reverse transcriptase-SEAP) activity in immortalized hTERT-BJI at 280.0 uM concentration and level of cell viability determined in MTT assay; format: functional
BJ [14] = assay: Compound was tested for cytomegalovirus or (pPCMV-SEAP) activity in immortalized hTERT-BJ1 at 2.8 uM concentration; format: functional, Homo sapiens
BJ [15] = assay: Compound was tested for human telomerase reverse transcriptase-SEAP (hTERT-SEAP) activity in immortalized hTERT-BJI at 28.0 uM concentration; format: functional
BJ [16] = assay: Compound was tested for human telomerase reverse transcriptase-SEAP (hTERT-SEAP) activity in immortalized hTERT-BJI at 280.0 uM concentration; format: functional
BJ [17] = assay: Compound was tested for cytomegalovirus or (pPCMV-SEAP) activity in immortalized hTERT-BJ1 at 28 uM concentration; format: functional, Homo sapiens
BJ [18] = assay: Compound was tested for cytomegalovirus or (pPCMV-SEAP) activity in immortalized hTERT-BJ1 at 280 uM concentration; format: functional, Homo sapiens
BJ [19] = assay: Compound was tested for human telomerase reverse transcriptase-SEAP (hTERT-SEAP) activity in immortalized hTERT-BJI at 2.8 uM concentration; format: functional
BJ [20] = assay: pPCMV-SEAP (cytomegalovirus-SEAP) activity in immortalized hTERT-BJ1 at 28 uM concentration and level of cell viability determined in MTT assay; format: functional, Homo sapiens
BJ [21] = assay: pPCMV-SEAP (cytomegalovirus-SEAP) activity in immortalized hTERT-BJ1 at 280 uM concentration and level of cell viability determined in MTT assay; format: functional, Homo sapiens
BJ [22] = assay: pPCMV-SEAP (cytomegalovirus-SEAP) activity in immortalized hTERT-BJ1 at 2.8 uM concentration and level of cell viability determined in MTT assay; format: functional, Homo sapiens
NCI-H1299 [23] = assay: hTERT-SEAP (Human telomerase reverse transcriptase-SEAP) activity in non-small cell lung cancer H1299 cell at 2.8 uM concentration and level of cell viability determined in MTT assay; format: functional
NCI-H1299 [24] = assay: Compound was tested for human telomerase reverse transcriptase-SEAP (hTERT-SEAP) activity in non-small cell lung cancer H1299 cell at 28.0 uM concentration; format: functional
NCI-H1299 [25] = assay: Compound was tested for human telomerase reverse transcriptase-SEAP (hTERT-SEAP) activity in non-small cell lung cancer H1299 cell at 280.0 uM concentration; format: functional
NCI-H1299 [26] = assay: hTERT-SEAP (Human telomerase reverse transcriptase-SEAP) activity in non-small cell lung cancer H1299 cell at 28 uM concentration and level of cell viability determined in MTT assay; format: functional
NCI-H1299 [27] = assay: hTERT-SEAP (Human telomerase reverse transcriptase-SEAP) activity in non-small cell lung cancer H1299 cell at 280.0 uM concentration and level of cell viability determined in MTT assay; format: functional
NCI-H1299 [28] = assay: Compound was tested for human telomerase reverse transcriptase-SEAP (hTERT-SEAP) activity in non-small cell lung cancer H1299 cell at 2.8 uM concentration; format: functional
BJ [29] = assay: hTERT-SEAP (Human telomerase reverse transcriptase-SEAP) activity in immortalized hTERT-BJI at 200.0 uM concentration and level of cell viability determined in MTT assay; format: functional
BJ [30] = assay: Compound was tested for human telomerase reverse transcriptase-SEAP (hTERT-SEAP) activity in immortalized hTERT-BJI at 20 uM concentration; format: functional
BJ [31] = assay: Compound was tested for human telomerase reverse transcriptase-SEAP (hTERT-SEAP) activity in immortalized hTERT-BJI at 200.0 uM concentration; format: functional
NCI-H1299 [32] = assay: (§1) hTERT-SEAP (Human telomerase reverse transcriptase-SEAP) activity in non-small cell lung cancer H1299 cell at 2.0 uM concentration and level of cell viability determined in MTT assay; format: functional
NCI-H1299 [33] = assay: hTERT-SEAP (Human telomerase reverse transcriptase-SEAP) activity in non-small cell lung cancer H1299 cell at 20 uM concentration and level of cell viability determined in MTT assay; format: functional
NCI-H1299 [34] = assay: hTERT-SEAP (Human telomerase reverse transcriptase-SEAP) activity in non-small cell lung cancer H1299 cell at 200.0 uM concentration and level of cell viability determined in MTT assay; format: functional
NCI-H1299 [35] = assay: Compound was tested for human telomerase reverse transcriptase-SEAP (hTERT-SEAP) activity in non-small cell lung cancer H1299 cell at 2.0 uM concentration; format: functional
NCI-H1299 [36] = assay: Compound was tested for human telomerase reverse transcriptase-SEAP (hTERT-SEAP) activity in non-small cell lung cancer H1299 cell at 20 uM concentration; format: functional
NCI-H1299 [37] = assay: Compound was tested for human telomerase reverse transcriptase-SEAP (hTERT-SEAP) activity in non-small cell lung cancer H1299 cell at 200.0 uM concentration; format: functional
NCI-H1299 [38] = assay: as §1; format: functional; remark: listed apart in the source
BJ [39] = assay: hTERT-SEAP (Human telomerase reverse transcriptase-SEAP) activity in immortalized hTERT-BJI at 20 uM concentration and level of cell viability determined in MTT assay; format: functional

Which Relative viability (BJ [1]) does the source give for `CCCC(=O)Oc1cccc2c1C(=O)c1cccc(OC(=O)CCC)c1C2=O` here?
Its Relative viability is 106%.

What about the Relative viability (BJ [2]) of the same compound?
Its Relative viability is 85%.

What about the “Relative SEAP activity” value (BJ [3]) of the same compound?
The value was 119%.

And the “Relative SEAP activity” value (BJ [4])?
The value was 134%.

And the Relative viability (NCI-H1299 [5])?
The Relative viability was 107%.

And the “Relative SEAP activity” value (NCI-H1299 [6])?
Its value is 118%.

What about the “Relative SEAP activity” value (NCI-H1299 [7]) of the same compound?
Its value is 111%.

And the Relative viability (NCI-H1299 [8])?
Its Relative viability is 106%.

What about the Relative viability (NCI-H1299 [9]) of the same compound?
Its Relative viability is 87%.

And the “Relative SEAP activity” value (NCI-H1299 [10])?
The value was 114%.

How did the Relative viability (BJ [11]) turn out when `CCC(=O)Oc1cccc2c1C(=O)c1cccc(OC(=O)CC)c1C2=O` was run?
The Relative viability was 99%.

And the Relative viability (BJ [12])?
The Relative viability was 109%.

And the Relative viability (BJ [13])?
Its Relative viability is 93%.

What about the “Relative SEAP activity” value (BJ [14]) of the same compound?
The value was 101%.

What about the “Relative SEAP activity” value (BJ [15]) of the same compound?
Its value is 152%.

And the “Relative SEAP activity” value (BJ [16])?
Its value is 161%.

What about the “Relative SEAP activity” value (BJ [17]) of the same compound?
Its value is 112%.

What about the “Relative SEAP activity” value (BJ [18]) of the same compound?
The value was 138%.

And the “Relative SEAP activity” value (BJ [19])?
Its value is 131%.

What about the Relative viability (BJ [20]) of the same compound?
The Relative viability was 110%.

And the Relative viability (BJ [21])?
The Relative viability was 94%.

And the Relative viability (BJ [22])?
The Relative viability was 114%.

What about the Relative viability (NCI-H1299 [23]) of the same compound?
The Relative viability was 116%.

What about the “Relative SEAP activity” value (NCI-H1299 [24]) of the same compound?
The value was 107%.

What about the “Relative SEAP activity” value (NCI-H1299 [25]) of the same compound?
The value was 97%.

What about the Relative viability (NCI-H1299 [26]) of the same compound?
Its Relative viability is 116%.

What about the Relative viability (NCI-H1299 [27]) of the same compound?
The Relative viability was 87%.

And the “Relative SEAP activity” value (NCI-H1299 [28])?
Its value is 103%.

`O=C(CCc1ccccc1)Oc1cccc2c1C(=O)c1cccc(OC(=O)CCc3ccccc3)c1C2=O` was tested. Which Relative viability (BJ [29]) did it give?
Its Relative viability is 76%.

What about the “Relative SEAP activity” value (BJ [30]) of the same compound?
The value was 124%.

What about the “Relative SEAP activity” value (BJ [31]) of the same compound?
The value was 110%.

And the Relative viability (NCI-H1299 [32])?
Its Relative viability is 111%.

And the Relative viability (NCI-H1299 [33])?
The Relative viability was 101%.

What about the Relative viability (NCI-H1299 [34]) of the same compound?
The Relative viability was 54%.

And the “Relative SEAP activity” value (NCI-H1299 [35])?
Its value is 94%.

And the “Relative SEAP activity” value (NCI-H1299 [36])?
The value was 98%.

And the “Relative SEAP activity” value (NCI-H1299 [37])?
Its value is 89%.

And the Relative viability (NCI-H1299 [38])?
Its Relative viability is 111%.

What about the Relative viability (BJ [39]) of the same compound?
Its Relative viability is 106%.

Reference: ChEMBL document CHEMBL1144896 (2003)
